Test results published in ChEMBL document CHEMBL5634079, “Development of novel celastrol-ligustrazine hybrids as potent peroxiredoxin 1 inhibitors against lung cancer” (Eur J Med Chem, 2023).
pIC50: −log10 of the molar value.

Legend:
A549 [1] = assay: Antiproliferative activity against human A549 cells assessed as inhibition of cell growth incubated for 48 hrs by MTT assay; format: functional, cell-based; details: A549, 48 h
Peroxiredoxin-1 = target: T1, Peroxiredoxin-1 (Homo sapiens, UniProt Q06830); assay: Inhibition of PRDX1 (unknown origin) in presence of cofactor A/cofactor B/NADPH incubated for 25 mins; details: for pIC50: read-out: IC50
T1 sequence (Q06830 whole entry): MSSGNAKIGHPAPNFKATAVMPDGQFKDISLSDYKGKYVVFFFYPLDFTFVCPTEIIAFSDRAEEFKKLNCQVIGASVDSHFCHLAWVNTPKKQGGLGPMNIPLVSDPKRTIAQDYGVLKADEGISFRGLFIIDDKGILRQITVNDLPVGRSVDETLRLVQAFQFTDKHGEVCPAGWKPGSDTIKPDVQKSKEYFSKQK

A549 [2] = assay: Antiproliferative activity against human A549 cells assessed as inhibition of cell growth incubated for 48 hrs in presence of celastrol by MTT assay; format: functional, cell-based; details: A549, 48 h
[3] = Antiproliferative activity against human LTEP-a2 cells assessed as inhibition of cell growth incubated for 48 hrs in presence of celastrol by MTT assay; format: functional, cell-based; details: LTEP-A2, 48 h
MDA-MB-231 [4] = assay: Antiproliferative activity against human MDA-MB-231 cells assessed as inhibition of cell growth incubated for 48 hrs in presence of celastrol by MTT assay; format: functional, cell-based; details: MDA-MB-231, 48 h
SK-HEP1 [5] = assay: Antiproliferative activity against human SK-HEP1 cells assessed as inhibition of cell growth incubated for 48 hrs in presence of celastrol by MTT assay; format: functional, cell-based; details: SK-HEP1, 48 h
NCI-H1975 [6] = assay: Antiproliferative activity against human NCI-H1975 cells assessed as inhibition of cell growth incubated for 48 hrs in presence of celastrol by MTT assay; format: functional, cell-based; details: NCI-H1975, 48 h
[7] = Antiproliferative activity against human LTEP-a2 cells assessed as inhibition of cell growth incubated for 48 hrs by MTT assay; format: functional, cell-based; details: LTEP-A2, 48 h
SK-HEP1 [8] = assay: Antiproliferative activity against human SK-HEP1 cells assessed as inhibition of cell growth incubated for 48 hrs by MTT assay; format: functional, cell-based; details: SK-HEP1, 48 h
MDA-MB-231 [9] = assay: Antiproliferative activity against human MDA-MB-231 cells assessed as inhibition of cell growth incubated for 48 hrs by MTT assay; format: functional, cell-based; details: MDA-MB-231, 48 h
NCI-H1975 [10] = assay: Antiproliferative activity against human NCI-H1975 cells assessed as inhibition of cell growth incubated for 48 hrs by MTT assay; format: functional, cell-based; details: NCI-H1975, 48 h
A549 [11] = assay: cells; details: Homo sapiens, A549, 48 h
Description: Antiproliferative activity against human A549 cells assessed as inhibition of cell growth incubated for 48 hrs in presence of ligustrazine by MTT assay

A549 [12] = assay: Induction of apoptosis in human A549 cells assessed as viable cells at 2 uM incubated for 48 hrs by Annexin V-FITC and PI staining based flow cytometric analysis (reference value: 93.8%); format: functional; details: read-out: Activity
[13] = Antiproliferative activity against human LTEP-a2 cells assessed as inhibition of cell growth incubated for 48 hrs in presence of ligustrazine by MTT assay; format: functional, cell-based; details: LTEP-A2, 48 h
A549 [14] = assay: Inhibition of cell migration in human A549 cells assessed as reduction in wound area at 2 uM incubated for 24 hrs by inverted microscopic analysis; format: functional; design: scale not given: the % may be the effect or the level left
A549 [15] = assay: Induction of apoptosis in human A549 cells assessed as late apoptotic cells at 2 uM incubated for 48 hrs by Annexin V-FITC and PI staining based flow cytometric analysis (reference value: 0.73%); format: functional
SK-HEP1 [16] = assay: Antiproliferative activity against human SK-HEP1 cells assessed as inhibition of cell growth incubated for 48 hrs in presence of ligustrazine by MTT assay; format: functional, cell-based; details: SK-HEP1, 48 h
NCI-H1975 [17] = assay: Antiproliferative activity against human NCI-H1975 cells assessed as inhibition of cell growth incubated for 48 hrs in presence of ligustrazine by MTT assay; format: functional, cell-based; details: NCI-H1975, 48 h
A549 [18] = assay: Induction of apoptosis in human A549 cells assessed as necrotic cells at 2 uM incubated for 48 hrs by Annexin V-FITC and PI staining based flow cytometric analysis (reference value: 4.68%); format: functional
A549 [19] = assay: Inhibition of cell invasion in human A549 cells incubated for 12 to 48 hrs by crystal violet staining based microscopic analysis; format: functional; details: dose 2-4 µM, time 12-48 hrs
[20] = Antitumor activity against mouse Lewis lung carcinoma cell line implanted in C57BL/6J mouse assessed as tumor growth inhibition at 1 mg/kg, ip administered every day for 19 days; format: functional; details: 456 h, time 19 day, read-out: TGI
MDA-MB-231 [21] = assay: cells; details: Homo sapiens, MDA-MB-231, 48 h
Description: Antiproliferative activity against human MDA-MB-231 cells assessed as inhibition of cell growth incubated for 48 hrs in presence of ligustrazine by MTT assay

A549 [22] = assay: Induction of apoptosis in human A549 cells assessed as early apoptotic cells at 2 uM incubated for 48 hrs by Annexin V-FITC and PI staining based flow cytometric analysis (reference value: 0.76%); format: functional
[23] = Toxicity in C57BL/6J mouse implanted with mouse Lewis lung carcinoma cell line assessed as decrease in body weight at 0.5 to 1 mg/kg, ip administered every day for 19 days; format: organism-based; details: in vivo, 456 h, dose 0.5-1 mg/kg, time 19 day

Compound | pIC50 (A549 [1]) | pIC50 (Peroxiredoxin-1) | pIC50 [7] | pIC50 (SK-HEP1 [8]) | pIC50 (MDA-MB-231 [9]) | pIC50 (NCI-H1975 [10]) | also measured
CCC(=O)OC1=C(C)C2=CC=C3[C@@](C)(CC[C@@]4(C)[C@@H]5C[C@](C)(C(=O)NCc6nc(C)c(C)nc6C)CC[C@]5(C)CC[C@]34C)C2=CC1=O | 5.18 | 6.01 | – | – | – | – | –
Cc1nc(C)c(C)nc1C [LIGUSTRAZINE] | < 4.70 | – | – | – | – | – | pIC50 (A549 [2]): 5.19; pIC50 [3]: 5.02; pIC50 (MDA-MB-231 [4]): 5.31; pIC50 (SK-HEP1 [5]): 5.01; IC50 (Peroxiredoxin-1): Not Active; pIC50 (NCI-H1975 [6]): 5.25
CCCC(=O)OC1=C(C)C2=CC=C3[C@@](C)(CC[C@@]4(C)[C@@H]5C[C@](C)(C(=O)NCc6nc(C)c(C)nc6C)CC[C@]5(C)CC[C@]34C)C2=CC1=O | 5.81 | 6.55 | 5.22 | 5.56 | 5.44 | 5.83 | –
CC1=C(O)C(=O)C=C2C1=CC=C1[C@@]2(C)CC[C@@]2(C)[C@@H]3C[C@](C)(C(=O)O)CC[C@]3(C)CC[C@]12C [CELASTROL] | 5.03 | – | 4.92 | 5.00 | 5.31 | 5.22 | pIC50 (A549 [11]): 5.19; viability at 2 µM (A549 [12]): 85.6%; pIC50 [13]: 5.02; Activity (A549 [14]): 50%; Activity (A549 [15]): 5.92%; pIC50 (SK-HEP1 [16]): 5.01; pIC50 (NCI-H1975 [17]): 5.25; Activity (A549 [18]): 3.28%; inhibition (A549 [19]): Dose-Dependent Effect; inhibition in vivo at 1 mg/kg [20]: 71%; pIC50 (MDA-MB-231 [21]): 5.31; Activity (A549 [22]): 5.21%; Activity [23]: Non-Toxic
CC1=C(OC(=O)C2CC2)C(=O)C=C2C1=CC=C1[C@@]2(C)CC[C@@]2(C)[C@@H]3C[C@](C)(C(=O)NCc4nc(C)c(C)nc4C)CC[C@]3(C)CC[C@]12C | 5.59 | 6.62 | 5.13 | 5.57 | 5.22 | 5.50 | –
CC1=C(OC(=O)/C=C/c2ccccc2)C(=O)C=C2C1=CC=C1[C@@]2(C)CC[C@@]2(C)[C@@H]3C[C@](C)(C(=O)OCc4nc(C)c(C)nc4C)CC[C@]3(C)CC[C@]12C | 5.57 | 6.28 | 5.48 | 5.79 | 5.67 | 5.83 | –
CC1=C(OC(=O)C2CCOCC2)C(=O)C=C2C1=CC=C1[C@@]2(C)CC[C@@]2(C)[C@@H]3C[C@](C)(C(=O)NCc4nc(C)c(C)nc4C)CC[C@]3(C)CC[C@]12C | 5.37 | 5.81 | – | – | – | – | –
CC1=C(O)C(=O)C=C2C1=CC=C1[C@@]2(C)CC[C@@]2(C)[C@@H]3C[C@](C)(C(=O)OCc4nc(C)c(C)nc4C)CC[C@]3(C)CC[C@]12C | 5.59 | 5.60 | – | – | – | – | –
CC1=C(O)C(=O)C=C2C1=CC=C1[C@@]2(C)CC[C@@]2(C)[C@@H]3C[C@](C)(C(=O)NCc4nc(C)c(C)nc4C)CC[C@]3(C)CC[C@]12C | 5.47 | 6.78 | – | – | – | – | –
CC(=O)OC1=C(C)C2=CC=C3[C@@](C)(CC[C@@]4(C)[C@@H]5C[C@](C)(C(=O)OCc6nc(C)c(C)nc6C)CC[C@]5(C)CC[C@]34C)C2=CC1=O | 5.28 | 6.32 | – | – | – | – | –
[O-][n+]1c(CBr)c(CBr)[n+]([O-])c2ccccc21 | – | 4.83 | – | – | – | – | –
CC(=O)OC1=C(C)C2=CC=C3[C@@](C)(CC[C@@]4(C)[C@@H]5C[C@](C)(C(=O)NCc6nc(C)c(C)nc6C)CC[C@]5(C)CC[C@]34C)C2=CC1=O | 5.18 | 5.83 | – | – | – | – | –
